ChEMBL document CHEMBL1201862, “PubChem BioAssay data set” (2004)
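A five-concentration, 48-hour dose response in 96-well plates underlies each endpoint, interpolated linearly between surrounding concentrations. Here, GI50 denotes the concentration required for 50% inhibition of growth.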 Calls of active or inactive are those of the source. Cut-off read from the data, not from the text of the source: active = GI50 up to about 1.1 µM and inactive = higher.

Columns and labels:
Assay in all cases: growth of human tumour cells (NCI), 48 h
[1] = test system: 786-0
[2] = test system: COLO 205
[3] = test system: HCC 2998
[4] = test system: HCT-116
[5] = test system: HOP-62
[6] = test system: IGROV-1
[7] = test system: KM12
[8] = test system: Malme-3M
[9] = test system: NCI-H522
[10] = test system: OVCAR-3
[11] = test system: SK-MEL-2
[12] = test system: SK-MEL-5
[13] = test system: SNB-75
[14] = test system: U-251
[15] = test system: UACC-257
[16] = test system: UO-31
[17] = test system: NCI-H226

Measured: GI50

O=C1CC[C@H]2CNC(=O)C[C@H]2C1
inactive: [1] > 100 µM | [2] > 100 µM | [3] > 100 µM | [4] > 100 µM | [5] > 100 µM | [6] > 100 µM | [7] > 100 µM | [8] > 100 µM | [9] > 100 µM | [10] > 100 µM | [11] > 100 µM | [12] > 100 µM | [13] > 100 µM | [14] > 100 µM | [15] > 100 µM | [16] > 100 µM

COC(=O)/C(=N\Nc1nnc(C)n1N)C(C#N)c1ccc(Cl)cc1 (centres undefined)
inactive: [1] 34.7 µM | [2] 95.1 µM | [3] > 100 µM | [4] > 100 µM | [5] > 100 µM | [6] > 100 µM | [7] > 100 µM | [8] > 100 µM | [17] > 100 µM | [10] > 100 µM | [11] > 100 µM | [13] > 100 µM | [14] > 100 µM | [15] > 100 µM | [16] > 100 µM

NC(=S)N/N=C(\C(=O)Nc1ccc(Cl)c(Cl)c1)C1=NN(c2ccccc2)C(c2cccc([N+](=O)[O-])c2)CC1=O (centres undefined)
inactive: [1] 17.6 µM | [2] 19 µM | [3] 40.6 µM | [4] 4.29 µM | [5] 34.6 µM | [6] 27 µM | [7] 85.9 µM | [8] > 100 µM | [17] 25.9 µM | [10] 20.6 µM | [11] > 100 µM | [12] > 100 µM | [13] 26.5 µM | [14] 4.31 µM | [15] 30.2 µM | [16] 30.3 µM

C=CCN1C(=O)C/C(=C2/CCC(=O)N2CC=C)C1=O
inactive: [1] > 100 µM | [2] > 100 µM | [3] > 100 µM | [4] > 100 µM | [5] 88.7 µM | [6] > 100 µM | [7] > 100 µM | [8] > 100 µM | [17] > 100 µM | [9] > 100 µM | [10] > 100 µM | [11] > 100 µM | [12] > 100 µM | [13] > 100 µM | [14] > 100 µM | [15] > 100 µM | [16] > 100 µM

N#Cc1ccc(C(C2C(=O)NC(=O)NC2=O)C2C(=O)NC(=O)NC2=O)cc1
inactive: [1] > 100 µM | [2] > 100 µM | [3] > 100 µM | [4] > 100 µM | [5] > 100 µM | [6] > 100 µM | [7] > 100 µM | [8] > 100 µM | [17] > 100 µM | [9] > 100 µM | [10] > 100 µM | [11] > 100 µM | [12] > 100 µM | [14] > 100 µM | [15] > 100 µM | [16] > 100 µM

CCOC(=O)/C(C(=O)c1ccccc1)=C1\N[C@H](C(=O)OCC)CS1
inactive: [1] 10 µM | [2] > 100 µM | [3] > 100 µM | [4] > 100 µM | [5] > 100 µM | [6] > 100 µM | [7] > 100 µM | [8] > 100 µM | [17] > 100 µM | [9] > 100 µM | [10] > 100 µM | [11] > 100 µM | [12] 92.3 µM | [13] > 100 µM | [14] > 100 µM | [15] > 100 µM | [16] > 100 µM

CCC/C(=N/NC(=O)C(N)=O)C(CC)C(=O)CCC(=O)N(Cc1ccccc1)Cc1ccccc1 (centres undefined)
inactive: [1] > 100 µM | [2] > 100 µM | [3] > 100 µM | [4] > 100 µM | [5] > 100 µM | [6] > 100 µM | [7] > 100 µM | [8] > 100 µM | [17] > 100 µM | [9] > 100 µM | [10] > 100 µM | [11] > 100 µM | [12] > 100 µM | [13] > 100 µM | [14] > 100 µM | [15] > 100 µM | [16] > 100 µM

Cc1cc(C)nc(NS(=O)(=O)c2ccc(Nc3c4ccccc4nc4c(C(=O)Nc5ccc(S(=O)(=O)N=C(N)N)cc5)cccc34)cc2)n1
inactive: [1] > 100 µM | [2] > 100 µM | [3] > 100 µM | [5] > 100 µM | [6] > 100 µM | [7] > 100 µM | [8] 78.7 µM | [9] > 100 µM | [10] > 100 µM | [11] > 100 µM | [12] > 100 µM | [13] 27.2 µM | [14] 98.9 µM | [15] > 100 µM | [16] 85.3 µM

COc1ccc(/C=N\N2C(=O)Cc3ccccc32)cc1
inactive: [1] > 100 µM | [2] > 100 µM | [3] 25.4 µM | [4] > 100 µM | [5] 64.1 µM | [6] > 100 µM | [7] > 100 µM | [8] > 100 µM | [17] > 100 µM | [10] > 100 µM | [11] > 100 µM | [12] > 100 µM | [13] 17.9 µM | [14] 48.4 µM | [15] > 100 µM | [16] 39.3 µM

O=C(CCC(=O)Nc1ccc(Cl)cc1)CC(=O)c1ccc(F)cc1
inactive: [1] > 100 µM | [2] > 100 µM | [3] > 100 µM | [4] > 100 µM | [5] > 100 µM | [6] > 100 µM | [7] > 100 µM | [8] > 100 µM | [17] > 100 µM | [9] > 100 µM | [10] > 100 µM | [11] > 100 µM | [13] > 100 µM | [15] > 100 µM | [16] > 100 µM

CCOC(=O)NC(=O)c1cn(C2OC(COC(=O)CCCCCCCCC(=O)OCC3OC(n4cc(C(=O)NC(=O)OCC)c(=O)[nH]c4=O)C(O)C3O)C(O)C2O)c(=O)[nH]c1=O (centres undefined)
inactive: [1] > 100 µM | [3] > 100 µM | [4] > 100 µM | [5] > 100 µM | [6] > 100 µM | [7] > 100 µM | [8] > 100 µM | [17] > 100 µM | [10] > 100 µM | [11] > 100 µM | [12] > 100 µM | [13] > 100 µM | [15] > 100 µM | [16] > 100 µM

Cc1cccc2c(=O)cc(-c3ccccc3)[nH]c12
inactive: [1] 4.78 µM | [2] 4.36 µM | [3] 4.39 µM | [4] 5.06 µM | [5] 3.64 µM | [6] 7.26 µM | [8] 4.09 µM | [17] 20.2 µM | [10] 3.31 µM | [11] 4.6 µM | [12] 2.36 µM | [13] 1.73 µM | [14] 21.9 µM | [15] 5.22 µM | [16] 15.6 µM
